Assay results as given in article PMC7026418, “The kinase polypharmacology landscape of clinical PARP inhibitors” (Scientific Reports, 2020).
Where two headings read alike, the source gives them in different places. Blank lines part the entries; values can stand above or below the compound they belong to.

Legend:
Experiment in all cases: biochemical
Design in all cases: DiscoveRx KINOMEscan active site-directed competition binding; percent of control kinase bound to immobilised ligand
MAPKAPK5 = molecular target: T1, MAPKAPK5 (Homo sapiens, UniProt Q8IW41)
T1 sequence (Q8IW41 1-473): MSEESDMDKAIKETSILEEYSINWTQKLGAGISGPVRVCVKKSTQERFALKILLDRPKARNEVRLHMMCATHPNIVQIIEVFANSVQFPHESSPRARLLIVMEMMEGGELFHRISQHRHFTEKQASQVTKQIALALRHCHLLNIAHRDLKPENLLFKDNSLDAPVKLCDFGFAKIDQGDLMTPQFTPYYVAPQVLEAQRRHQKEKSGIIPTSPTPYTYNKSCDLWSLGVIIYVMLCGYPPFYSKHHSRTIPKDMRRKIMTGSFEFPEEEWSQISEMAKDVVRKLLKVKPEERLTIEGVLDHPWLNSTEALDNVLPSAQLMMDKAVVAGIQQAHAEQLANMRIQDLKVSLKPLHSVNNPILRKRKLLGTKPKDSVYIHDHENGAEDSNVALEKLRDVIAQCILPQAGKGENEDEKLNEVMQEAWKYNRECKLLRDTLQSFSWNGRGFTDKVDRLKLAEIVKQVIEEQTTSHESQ

MST3 = molecular target: T2, MST3 (Homo sapiens, UniProt Q9Y6E0)
T2 construct: gene STK24
T2 sequence (Q9Y6E0 whole entry): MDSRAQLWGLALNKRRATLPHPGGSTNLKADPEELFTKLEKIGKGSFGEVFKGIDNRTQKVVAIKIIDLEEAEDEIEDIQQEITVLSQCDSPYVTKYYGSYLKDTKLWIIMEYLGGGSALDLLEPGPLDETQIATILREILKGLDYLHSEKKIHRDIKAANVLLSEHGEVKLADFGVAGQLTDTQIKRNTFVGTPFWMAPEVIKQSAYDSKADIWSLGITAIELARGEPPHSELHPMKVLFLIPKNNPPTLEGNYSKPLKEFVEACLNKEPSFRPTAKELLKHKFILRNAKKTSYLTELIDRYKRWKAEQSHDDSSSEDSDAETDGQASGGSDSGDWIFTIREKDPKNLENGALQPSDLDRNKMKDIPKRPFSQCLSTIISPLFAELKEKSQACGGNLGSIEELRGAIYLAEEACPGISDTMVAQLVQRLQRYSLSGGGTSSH

TLK2 = TLK2 (Homo sapiens, UniProt Q86UE8)
Sequence of TLK2 (Q86UE8 whole entry): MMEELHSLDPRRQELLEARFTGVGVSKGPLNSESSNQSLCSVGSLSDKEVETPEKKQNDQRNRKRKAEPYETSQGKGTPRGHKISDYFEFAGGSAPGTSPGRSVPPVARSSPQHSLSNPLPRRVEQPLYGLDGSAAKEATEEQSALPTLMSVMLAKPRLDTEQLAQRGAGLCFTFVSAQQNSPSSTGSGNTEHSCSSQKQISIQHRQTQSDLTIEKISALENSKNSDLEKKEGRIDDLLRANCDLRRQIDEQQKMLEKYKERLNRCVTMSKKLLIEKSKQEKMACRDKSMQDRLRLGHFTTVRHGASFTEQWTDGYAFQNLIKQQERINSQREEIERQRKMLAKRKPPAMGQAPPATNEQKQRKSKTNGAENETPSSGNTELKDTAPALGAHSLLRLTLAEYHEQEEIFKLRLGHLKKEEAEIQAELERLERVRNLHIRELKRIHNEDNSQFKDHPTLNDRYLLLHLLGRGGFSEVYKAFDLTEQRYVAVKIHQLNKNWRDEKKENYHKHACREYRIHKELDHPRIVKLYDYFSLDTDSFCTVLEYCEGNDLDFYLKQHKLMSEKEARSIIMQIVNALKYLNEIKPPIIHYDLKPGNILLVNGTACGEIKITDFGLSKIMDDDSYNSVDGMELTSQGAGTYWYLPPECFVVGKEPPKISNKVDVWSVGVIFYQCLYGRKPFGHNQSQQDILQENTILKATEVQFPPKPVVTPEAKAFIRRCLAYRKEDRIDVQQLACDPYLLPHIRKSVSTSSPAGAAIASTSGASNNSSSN

MERTK = molecular target: T3, MERTK (Homo sapiens, UniProt Q12866)
T3 sequence (Q12866 1-999): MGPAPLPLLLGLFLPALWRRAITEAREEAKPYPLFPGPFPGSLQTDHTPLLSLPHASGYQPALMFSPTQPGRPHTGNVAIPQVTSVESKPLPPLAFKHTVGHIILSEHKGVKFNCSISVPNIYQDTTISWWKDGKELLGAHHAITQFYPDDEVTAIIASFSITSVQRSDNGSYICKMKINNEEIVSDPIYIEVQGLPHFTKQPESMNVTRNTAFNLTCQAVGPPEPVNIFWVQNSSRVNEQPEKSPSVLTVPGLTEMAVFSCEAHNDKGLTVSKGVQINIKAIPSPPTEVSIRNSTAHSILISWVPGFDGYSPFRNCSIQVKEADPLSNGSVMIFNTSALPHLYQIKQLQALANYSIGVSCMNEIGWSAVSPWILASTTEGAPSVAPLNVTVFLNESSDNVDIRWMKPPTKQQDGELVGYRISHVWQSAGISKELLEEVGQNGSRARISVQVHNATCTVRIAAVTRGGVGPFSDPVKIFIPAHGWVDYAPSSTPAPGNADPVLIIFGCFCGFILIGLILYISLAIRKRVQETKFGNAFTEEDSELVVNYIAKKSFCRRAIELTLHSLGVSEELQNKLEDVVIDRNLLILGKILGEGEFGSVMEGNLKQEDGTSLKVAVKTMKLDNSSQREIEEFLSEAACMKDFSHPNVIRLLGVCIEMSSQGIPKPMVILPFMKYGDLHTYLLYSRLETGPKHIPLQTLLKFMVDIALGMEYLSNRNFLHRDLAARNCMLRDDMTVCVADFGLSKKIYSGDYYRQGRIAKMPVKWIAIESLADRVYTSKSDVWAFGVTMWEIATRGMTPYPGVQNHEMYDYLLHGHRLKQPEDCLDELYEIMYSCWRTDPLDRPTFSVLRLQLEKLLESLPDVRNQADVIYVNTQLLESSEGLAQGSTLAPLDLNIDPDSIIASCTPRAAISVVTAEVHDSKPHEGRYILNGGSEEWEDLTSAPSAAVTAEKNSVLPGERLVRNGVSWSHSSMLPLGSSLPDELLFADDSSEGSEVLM

SNARK = molecular target: T4, SNARK (Homo sapiens, UniProt Q9H093)
T4 construct: gene NUAK2
T4 sequence (Q9H093 1-628): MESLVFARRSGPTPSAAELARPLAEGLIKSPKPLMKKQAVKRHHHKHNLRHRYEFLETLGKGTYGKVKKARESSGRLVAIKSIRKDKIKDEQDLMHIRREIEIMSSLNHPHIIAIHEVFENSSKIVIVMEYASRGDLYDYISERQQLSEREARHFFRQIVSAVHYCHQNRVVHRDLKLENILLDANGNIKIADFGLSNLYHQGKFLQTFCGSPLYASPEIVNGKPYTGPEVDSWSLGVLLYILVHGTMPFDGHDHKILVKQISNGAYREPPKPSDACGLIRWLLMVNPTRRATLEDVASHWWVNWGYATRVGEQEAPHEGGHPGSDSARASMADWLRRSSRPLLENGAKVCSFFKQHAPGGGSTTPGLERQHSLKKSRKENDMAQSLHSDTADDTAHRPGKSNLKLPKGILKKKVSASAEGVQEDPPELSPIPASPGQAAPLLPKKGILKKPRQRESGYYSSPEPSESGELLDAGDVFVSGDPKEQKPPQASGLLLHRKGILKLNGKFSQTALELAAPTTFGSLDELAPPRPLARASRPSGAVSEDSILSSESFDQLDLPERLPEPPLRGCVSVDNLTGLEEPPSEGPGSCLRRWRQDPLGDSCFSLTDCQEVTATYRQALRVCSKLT

[1] = read-out: Niraparib (MK-4827) / %Ctrl @ 10000nM
[2] = read-out: Rucaparib / %Ctrl @ 10000nM, binding competition, % of control
[3] = read-out: Olaparib / %Ctrl @ 10000nM
[4] = read-out: Talazoparib (BMN 673) / %Ctrl @ 10000nM

SMILES: NC(=O)c1cccc2cn(-c3ccc([C@@H]4CCCNC4)cc3)nc12 [Niraparib]
- percent of control binding at 10 µM (MAPKAPK5; [1]): 86%
- percent of control binding at 10 µM (MST3; [1]): 74%
- percent of control binding at 10 µM (TLK2; [1]): 95%
- percent of control binding at 10 µM (MERTK; [1]): 99%
- percent of control binding at 10 µM (SNARK; [1]): 98%

- percent of control binding at 10 µM (MAPKAPK5; [2]): 88%
- percent of control binding at 10 µM (MST3; [2]): 89%
- percent of control binding at 10 µM (TLK2; [2]): 84%
- percent of control binding at 10 µM (MERTK; [2]): 64%
- percent of control binding at 10 µM (SNARK; [2]): 50%
SMILES: CNCc1ccc(-c2[nH]c3cc(F)cc4c3c2CCNC4=O)cc1 [Rucaparib]

- percent of control binding at 10 µM (MAPKAPK5; [3]): 87%
- percent of control binding at 10 µM (MST3; [3]): 99%
- percent of control binding at 10 µM (TLK2; [3]): 95%
- percent of control binding at 10 µM (MERTK; [3]): 83%
- percent of control binding at 10 µM (SNARK; [3]): 72%
SMILES: O=C(c1cc(Cc2n[nH]c(=O)c3ccccc23)ccc1F)N1CCN(C(=O)C2CC2)CC1 [Olaparib]

- percent of control binding at 10 µM (MAPKAPK5; [4]): 93%
- percent of control binding at 10 µM (MST3; [4]): 99%
- percent of control binding at 10 µM (TLK2; [4]): 84%
- percent of control binding at 10 µM (MERTK; [4]): 98%
- percent of control binding at 10 µM (SNARK; [4]): 100%
SMILES: Cn1ncnc1[C@H]1c2n[nH]c(=O)c3cc(F)cc(c23)N[C@@H]1c1ccc(F)cc1 [Talazoparib]
